Assay results taken from PubChem BioAssay AID248 (DTP/NCI, 2004).
Inconclusive results and toxic doses are left out.

Test system: L1210 leukemia ip in BDF1 mice, survival T/C
Experiment: NCI In Vivo Anticancer Drug Screen. Data for tumor model L1210 Leukemia (intraperitoneal) in B6D2F1 (BDF1) mice
Settings: higher = longer survival
Method in brief: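 Each compound was tested against a transplantable tumor grown in mice. The endpoint was survival, with treated animals benchmarked against vehicle controls as a simple ratio.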

SMILES: O=C1CN=C(c2ccc[nH]2)c2cc(Cl)ccc2N1
- T/C (endpoint: mean survival time, dose: 100.0 mg/kg/injection, schedule: Q03HX008 (oral), vehicle: saline with Tween-80): 123 % of control
- T/C (endpoint: mean survival time, dose: 100.0 mg/kg/injection, schedule: Q03HX024 (oral), vehicle: saline with Tween-80): 121 % of control
- T/C (endpoint: mean survival time, dose: 100.0 mg/kg/injection, schedule: Q04DX003 (ip), vehicle: other): 105 % of control
- T/C (endpoint: mean survival time, dose: 100.0 mg/kg/injection, schedule: Q04DX003 (oral), vehicle: saline with Tween-80): 109 % of control
- T/C (endpoint: mean survival time, dose: 100.0 mg/kg/injection, schedule: Q08DX002 (ip), vehicle: other): 115 % of control
- T/C (endpoint: mean survival time, dose: 100.0 mg/kg/injection, schedule: Q08DX002 (oral), vehicle: saline with Tween-80): 103 % of control
- T/C (endpoint: mean survival time, dose: 102.0 mg/kg/injection, schedule: Q01DX007 (oral), vehicle: other): 108 % of control
- T/C (endpoint: mean survival time, dose: 112.0 mg/kg/injection, schedule: Q01DX015 (ip), vehicle: other): 158 % of control
- T/C (endpoint: mean survival time, dose: 112.5 mg/kg/injection, schedule: Q01DX Z (ip), vehicle: carboxymethylcellulose (CMC)): 170 % of control
- T/C (endpoint: mean survival time, dose: 120.0 mg/kg/injection, schedule: Q01DX009 (ip), vehicle: other): 116 % of control
- T/C (endpoint: mean survival time, dose: 156.0 mg/kg/injection, schedule: Q01DX007 (oral), vehicle: other): 112 % of control
- T/C (endpoint: mean survival time, dose: 180.0 mg/kg/injection, schedule: Q01DX009 (ip), vehicle: other): 155 % of control
- T/C (endpoint: mean survival time, dose: 200.0 mg/kg/injection, schedule: Q01DX001 (ip), vehicle: other): 106 % of control
- T/C (endpoint: mean survival time, dose: 200.0 mg/kg/injection, schedule: Q01DX001 (iv), vehicle: other): 108 % of control
- T/C (endpoint: mean survival time, dose: 200.0 mg/kg/injection, schedule: Q01DX001 (oral), vehicle: saline with Tween-80): 116 % of control
- T/C (endpoint: mean survival time, dose: 200.0 mg/kg/injection, schedule: Q01DX009 (oral), vehicle: saline with Tween-80): 109 % of control
- T/C (endpoint: mean survival time, dose: 200.0 mg/kg/injection, schedule: Q04DX003 (ip), vehicle: other): 114 % of control
- T/C (endpoint: mean survival time, dose: 200.0 mg/kg/injection, schedule: Q04DX003 (oral), vehicle: saline with Tween-80): 115 % of control
- T/C (endpoint: mean survival time, dose: 200.0 mg/kg/injection, schedule: Q08DX002 (ip), vehicle: other): 118 % of control
- T/C (endpoint: mean survival time, dose: 200.0 mg/kg/injection, schedule: Q08DX002 (oral), vehicle: saline with Tween-80): 105 % of control
- T/C (endpoint: mean survival time, dose: 225.0 mg/kg/injection, schedule: Q01DX Z (ip), vehicle: carboxymethylcellulose (CMC)): 86 % of control
- T/C (endpoint: mean survival time, dose: 240.0 mg/kg/injection, schedule: Q01DX007 (oral), vehicle: other): 119 % of control
- T/C (endpoint: mean survival time, dose: 400.0 mg/kg/injection, schedule: Q01DX001 (ip), vehicle: other): 112 % of control
- T/C (endpoint: mean survival time, dose: 400.0 mg/kg/injection, schedule: Q01DX001 (iv), vehicle: other): 109 % of control
- T/C (endpoint: mean survival time, dose: 400.0 mg/kg/injection, schedule: Q01DX001 (oral), vehicle: saline with Tween-80): 108 % of control
- T/C (endpoint: mean survival time, dose: 400.0 mg/kg/injection, schedule: Q01DX009 (ip), vehicle: Klucel (hydroxypropylcellulose) (HPC)): 109 % of control
- T/C (endpoint: mean survival time, dose: 400.0 mg/kg/injection, schedule: Q01DX009 (ip), vehicle: water): 108 % of control
- T/C (endpoint: mean survival time, dose: 400.0 mg/kg/injection, schedule: Q01DX009 (oral), vehicle: saline with Tween-80): 105 % of control
- T/C (endpoint: mean survival time, dose: 400.0 mg/kg/injection, schedule: Q04DX003 (ip), vehicle: other): 114 % of control
- T/C (endpoint: mean survival time, dose: 400.0 mg/kg/injection, schedule: Q08DX002 (ip), vehicle: other): 109 % of control
- T/C (endpoint: mean survival time, dose: 400.0 mg/kg/injection, schedule: Q08DX002 (oral), vehicle: saline with Tween-80): 109 % of control
- T/C (endpoint: mean survival time, dose: 540.0 mg/kg/injection, schedule: Q01DX001 (oral), vehicle: other): 110 % of control
- T/C (endpoint: mean survival time, dose: 720.0 mg/kg/injection, schedule: Q01DX001 (oral), vehicle: other): 110 % of control
- T/C (endpoint: mean survival time, dose: 800.0 mg/kg/injection, schedule: Q08DX002 (oral), vehicle: saline with Tween-80): 121 % of control
- T/C (endpoint: median survival time, dose: 2.0 mg/kg/injection, schedule: Q03HX008 (ip), vehicle: clinical formulation): 95 % of control
- T/C (endpoint: median survival time, dose: 32.0 mg/kg/injection, schedule: Q04DX003 (ip), vehicle: clinical formulation): 90 % of control
- T/C (endpoint: median survival time, dose: 50.0 mg/kg/injection, schedule: Q01DX009 (ip), vehicle: steriod suspending solution): 100 % of control
- T/C (endpoint: median survival time, dose: 50.0 mg/kg/injection, schedule: Q01DX009 (sc), vehicle: steriod suspending solution): 100 % of control
- T/C (endpoint: median survival time, dose: 64.0 mg/kg/injection, schedule: Q01DX001 (ip), vehicle: clinical formulation): 95 % of control
- T/C (endpoint: median survival time, dose: 64.0 mg/kg/injection, schedule: Q04DX003 (ip), vehicle: clinical formulation): 100 % of control
- T/C (endpoint: median survival time, dose: 100.0 mg/kg/injection, schedule: Q01DX001 (ip), vehicle: acid diluted with saline): 100 % of control
- T/C (endpoint: median survival time, dose: 100.0 mg/kg/injection, schedule: Q01DX009 (ip), vehicle: steriod suspending solution): 100 % of control
- T/C (endpoint: median survival time, dose: 100.0 mg/kg/injection, schedule: Q01DX009 (sc), vehicle: steriod suspending solution): 100 % of control
- T/C (endpoint: median survival time, dose: 200.0 mg/kg/injection, schedule: Q01DX001 (ip), vehicle: acid diluted with saline): 95 % of control
- T/C (endpoint: median survival time, dose: 200.0 mg/kg/injection, schedule: Q01DX009 (ip), vehicle: steriod suspending solution): 122 % of control
- T/C (endpoint: median survival time, dose: 200.0 mg/kg/injection, schedule: Q01DX009 (sc), vehicle: steriod suspending solution): 100 % of control
- T/C (endpoint: median survival time, dose: 400.0 mg/kg/injection, schedule: Q01DX009 (ip), vehicle: steriod suspending solution): 150 % of control
- T/C (endpoint: median survival time, dose: 400.0 mg/kg/injection, schedule: Q01DX009 (sc), vehicle: steriod suspending solution): 122 % of control
- T/C (endpoint: median survival time, dose: 800.0 mg/kg/injection, schedule: Q01DX009 (ip), vehicle: steriod suspending solution): 88 % of control
